Measured values published in the NIST ThermoML archive (doi:10.1021/acs.jced.8b00229).

Details: Liquid, Vibrating tube method

C=CCCCC [hex-1-ene]
Details	mass density [kg/m3]
283.57 K, 1000 kPa	683.2
283.57 K, 3000 kPa	685.2
283.57 K, 5000 kPa	687.2
283.57 K, 10000 kPa	691.9
283.57 K, 15000 kPa	696.4
283.57 K, 20000 kPa	700.6
283.57 K, 25000 kPa	704.7
283.57 K, 30000 kPa	708.5
283.57 K, 35000 kPa	712.4
283.57 K, 45000 kPa	719.4
283.58 K, 500 kPa	682.3
283.58 K, 40000 kPa	714.7
283.58 K, 50000 kPa	722.4
283.58 K, 55000 kPa	725.5
283.58 K, 60000 kPa	728.6
283.58 K, 70000 kPa	734.4
283.58 K, 80000 kPa	739.9
283.59 K, 100 kPa	682.2
283.59 K, 90000 kPa	745.2
283.59 K, 100000 kPa	750.1
293.5 K, 1000 kPa	674.1
293.51 K, 100 kPa	673.1
293.51 K, 500 kPa	673.5
293.51 K, 3000 kPa	676.3
293.51 K, 5000 kPa	678.4
293.51 K, 10000 kPa	683.5
293.51 K, 20000 kPa	692.8
293.51 K, 25000 kPa	697
293.51 K, 30000 kPa	701.1
293.51 K, 35000 kPa	704.9
293.51 K, 55000 kPa	718.9
293.51 K, 60000 kPa	722.1
293.51 K, 70000 kPa	728.2
293.51 K, 80000 kPa	733.8
293.51 K, 90000 kPa	739.3
293.51 K, 100000 kPa	744.4
293.52 K, 15000 kPa	688.3
293.52 K, 40000 kPa	708.6
293.52 K, 45000 kPa	712.5
293.52 K, 50000 kPa	715.6
303.4 K, 500 kPa	664.1
303.4 K, 1000 kPa	664.6
303.41 K, 100 kPa	663.5
303.41 K, 3000 kPa	667
303.41 K, 5000 kPa	669.3
303.41 K, 10000 kPa	674.8
303.41 K, 15000 kPa	679.9
303.41 K, 20000 kPa	684.7
303.41 K, 25000 kPa	689.2
303.42 K, 30000 kPa	693.5
303.42 K, 35000 kPa	698.2
303.42 K, 40000 kPa	701.5
303.42 K, 45000 kPa	705.8
303.42 K, 50000 kPa	708.8
303.42 K, 55000 kPa	712.8
303.42 K, 60000 kPa	715.5
303.42 K, 70000 kPa	721.8
303.42 K, 80000 kPa	727.7
303.42 K, 90000 kPa	733.2
303.42 K, 100000 kPa	738.5
313.34 K, 100 kPa	654.1
313.34 K, 20000 kPa	676.6
313.35 K, 500 kPa	654.2
313.35 K, 1000 kPa	655.3
313.35 K, 3000 kPa	657.9
313.35 K, 5000 kPa	660.3
313.35 K, 10000 kPa	666.1
313.35 K, 15000 kPa	671.6
313.35 K, 25000 kPa	681.4
313.35 K, 30000 kPa	685.9
313.35 K, 35000 kPa	690.2
313.35 K, 40000 kPa	694.3
313.35 K, 45000 kPa	698.3
313.35 K, 50000 kPa	701.9
313.35 K, 55000 kPa	705.7
313.35 K, 60000 kPa	709
313.35 K, 80000 kPa	721.9
313.35 K, 90000 kPa	727.6
313.35 K, 100000 kPa	733.2
313.36 K, 70000 kPa	715.9
323.18 K, 100 kPa	644.5
323.18 K, 60000 kPa	702.5
323.19 K, 500 kPa	644.9
323.19 K, 1000 kPa	645.8
323.19 K, 3000 kPa	648.6
323.19 K, 5000 kPa	651.3
323.19 K, 10000 kPa	657.6
323.19 K, 50000 kPa	695.2
